The values below come from ChEMBL document CHEMBL4699559, “Discovery of CC-90011: A Potent and Selective Reversible Inhibitor of Lysine Specific Demethylase 1 (LSD1)” (J Med Chem, 2020).

For orientation: inhibition means the percentage by which the read-out fell short of the control. The term AUC(0-t) denotes the area under the concentration-time curve up to a stated or last time point. By EC50 is commonly meant the midpoint of the concentration-response curve. A low value points to an effect from little substance. In general, Cmax refers to the peak of the concentration-time curve. A word on the bioavailability: it is the share of a dose that reaches the circulation, judged against a reference dose that is usually intravenous. The clearance is a measure of how efficiently the substance is removed, as volume per time. Read a high clearance as a high capacity for elimination. What is called half-life is the time needed for the level to fall by half in the phase considered. Low values mean rapid decline, high ones slow decline.

Activity calls are given as the source filed them.

The target of data set [1] is hERG (KCNH2) (Homo sapiens, UniProt Q12809). Nature of the data set: Inhibition of human ERG at 10 uM relative to control.
The nature of data set [2]: AUC (0 to 6 hrs) in CD1 mouse at 10 mg/kg, po. In kind it is ADME, organism-based. Set-up: time < 6 hr, route oral, dose 10 mg/kg. To be noted: in vivo.
Data set [3] in a line: Toxicity in Crl:CD1-Foxn1nu mouse xenografted with human LXFS615 cells assessed as weight loss at 5 mg/kg, po dosed daily for 30 days relative to control. In kind it is organism-based. To be noted: in vivo, 720 h, time 30 day. (Xenograft models place foreign cells or tissue in a host animal.)
Data set [4] is described as follows: Toxicity in Crl:CD1-Foxn1nu mouse xenografted with human NCI-H1417 cells assessed as weight gain level at 2.5 to 5 mg/kg, po QD for 65 days relative to control. The data set is classed as organism-based. To be noted: in vivo, 1560 h, dose 2.5-5 mg/kg, time 65 day.
Data set [5] is described as follows: Protein binding in mouse plasma. In kind it is ADME, cell-free. To be noted: read-out: PPB (converted).
The test system of data set [6] is IMR-90. Nature of the data set: Anti-proliferative activity in human IMR-90 cells incubated for 168 hrs by MTS assay. The data set is classed as functional, cell-based. Particulars: IMR-90, 168 h. (Tetrazolium assays rely on reduction of a dye to a coloured formazan, in cell work by metabolically active cells.)
Data set [7] can be described thus: Volume of distribution at steady state in CD1 mouse at 5 mg/kg, iv. The data set is classed as ADME, organism-based. To be noted: in vivo, read-out: Vdss.
Data set [8] addresses T1, Amine oxidase [flavin-containing] B (Homo sapiens, UniProt P27338).
T1 sequence (P27338 whole entry): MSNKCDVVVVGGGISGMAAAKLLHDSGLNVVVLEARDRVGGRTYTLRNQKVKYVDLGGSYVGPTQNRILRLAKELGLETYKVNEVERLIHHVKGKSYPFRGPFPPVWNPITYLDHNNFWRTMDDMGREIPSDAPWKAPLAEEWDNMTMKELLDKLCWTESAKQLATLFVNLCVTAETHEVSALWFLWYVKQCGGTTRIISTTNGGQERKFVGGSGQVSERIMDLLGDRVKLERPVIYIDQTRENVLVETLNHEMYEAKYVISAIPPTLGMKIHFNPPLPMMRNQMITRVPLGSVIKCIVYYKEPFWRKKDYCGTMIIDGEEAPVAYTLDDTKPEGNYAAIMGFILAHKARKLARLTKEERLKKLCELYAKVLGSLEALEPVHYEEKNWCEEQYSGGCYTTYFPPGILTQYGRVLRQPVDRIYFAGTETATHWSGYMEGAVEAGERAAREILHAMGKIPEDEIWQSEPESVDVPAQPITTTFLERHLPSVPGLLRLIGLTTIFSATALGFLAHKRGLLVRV
Nature of the data set: Inhibition of MAOB (unknown origin) at. To be noted: dose <10 µM.

For data set [9], the system named is Mus musculus. In words: Induction of in-vivo cell differentiation in Crl:CD1-Foxn1nu mouse patient-derived xenograft model xenografted with human LU2514 assessed as increase in apoptotic bodies at 10 mg/kg, po QD for 28 days and measured 15 days post last dose by H and E staining based assay. Particulars: time 43.0 day. The data set is classed as functional, organism-based.

A short description of data set [10]: Cmax in CD1 mouse at 5 mg/kg, po. Particulars: in vivo. Set-up: route oral, dose 5 mg/kg. The data set is classed as ADME, organism-based.
Data set [11] can be described thus: Antitumor activity against human LU2514 xenografted in Crl:CD1-Foxn1nu mouse patient-derived xenograft model assessed as inhibition of tumor growth at 5 mg/kg, po QD for 28 days relative to control. In kind it is functional. To be noted: 672 h, time 28 day, read-out: TGI.
The nature of data set [12]: AUC (0 to 24 hrs) in CD1 mouse at 5 mg/kg, po. The data set is classed as ADME, organism-based. Set-up: time < 24 hr, route oral, dose 5 mg/kg. To be noted: in vivo.
The nature of data set [13]: Oral bioavailability in CD1 mouse at 5 mg/kg. The data set is classed as ADME, organism-based. Particulars: in vivo.
The nature of data set [14]: Antitumor activity against human LU2514 xenografted in Crl:CD1-Foxn1nu mouse patient-derived xenograft model assessed as inhibition of tumor growth at 10 mg/kg, po QD for 28 days relative to control. To be noted: 672 h, time 28 day, read-out: TGI. The data set is classed as functional.
The subject of data set [15] is Mus musculus. Nature of the data set: Inhibition of GRP mRNA expression in Crl:CD1-Foxn1nu mouse xenografted with human NCI-H1417 cells at 2.5 mg/kg, po QD for 4 days and measured 24 hrs post last dose by qPCR analysis. The data set is classed as functional, organism-based. Particulars: time 5.0 day.
Data set [16] is described as follows: Clearance in CD1 mouse at 5 mg/kg, iv. The data set is classed as ADME, organism-based. To be noted: in vivo.
For data set [17], the system named is Mus musculus. In words: Inhibition of GRP mRNA expression in Crl:CD1-Foxn1nu mouse xenografted with human NCI-H1417 cells at 5 mg/kg, po QD for 4 days and measured 24 hrs post last dose by qPCR analysis. To be noted: time 5.0 day. In kind it is functional, organism-based.
Data set [18] is described as follows: Antitumor activity against human LXFS615 xenografted in Crl:CD1-Foxn1nu mouse patient-derived xenograft model assessed as inhibition of tumor growth at 5 mg/kg, po dosed daily for 30 days relative to control. In kind it is functional. Particulars: 720 h, time 30 day, read-out: TGI.
The nature of data set [19]: Half life in CD1 mouse at 5 mg/kg, iv. The data set is classed as ADME, organism-based. To be noted: in vivo.
Data set [20] deals with T2, Amine oxidase [flavin-containing] A (Homo sapiens, UniProt P21397).
T2 sequence (P21397 whole entry): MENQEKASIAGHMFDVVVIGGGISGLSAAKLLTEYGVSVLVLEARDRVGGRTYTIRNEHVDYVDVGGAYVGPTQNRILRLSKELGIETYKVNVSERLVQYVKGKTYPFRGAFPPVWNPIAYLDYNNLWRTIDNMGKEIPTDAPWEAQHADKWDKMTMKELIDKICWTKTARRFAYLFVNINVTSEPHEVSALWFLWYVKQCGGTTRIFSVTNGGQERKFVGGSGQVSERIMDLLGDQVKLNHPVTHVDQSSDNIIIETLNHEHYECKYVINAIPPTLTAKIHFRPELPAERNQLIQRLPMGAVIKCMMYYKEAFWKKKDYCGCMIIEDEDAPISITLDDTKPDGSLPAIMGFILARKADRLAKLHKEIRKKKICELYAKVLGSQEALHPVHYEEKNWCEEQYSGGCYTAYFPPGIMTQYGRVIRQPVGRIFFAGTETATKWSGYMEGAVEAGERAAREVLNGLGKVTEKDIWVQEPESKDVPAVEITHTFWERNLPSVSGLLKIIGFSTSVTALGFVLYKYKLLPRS
Nature of the data set: Inhibition of MAOA (unknown origin) at. Particulars: dose <10 µM.

Data set [21] relates to NCI-H1417. Nature of the data set: Antitumor activity against human NCI-H1417 cells xenografted in Crl:CD1-Foxn1nu mouse assessed as tumor growth regression level at 5 mg/kg, po QD for 65 days relative to control. The data set is classed as functional. Particulars: time 65 day.
In data set [22] the test system is Mus musculus. Nature of the data set: Induction of in-vivo cell differentiation in Crl:CD1-Foxn1nu mouse patient-derived xenograft model xenografted with human LU2514 assessed as loosening of cellular structure at 10 mg/kg, po QD for 28 days and measured 15 days post last dose by H and E staining based assay. In kind it is functional, organism-based. To be noted: time 43.0 day.

The target in data set [23] is T3, Lysine-specific histone demethylase 2 (Homo sapiens) (UniProt Q8NB78).
T3 sequence (whole entry): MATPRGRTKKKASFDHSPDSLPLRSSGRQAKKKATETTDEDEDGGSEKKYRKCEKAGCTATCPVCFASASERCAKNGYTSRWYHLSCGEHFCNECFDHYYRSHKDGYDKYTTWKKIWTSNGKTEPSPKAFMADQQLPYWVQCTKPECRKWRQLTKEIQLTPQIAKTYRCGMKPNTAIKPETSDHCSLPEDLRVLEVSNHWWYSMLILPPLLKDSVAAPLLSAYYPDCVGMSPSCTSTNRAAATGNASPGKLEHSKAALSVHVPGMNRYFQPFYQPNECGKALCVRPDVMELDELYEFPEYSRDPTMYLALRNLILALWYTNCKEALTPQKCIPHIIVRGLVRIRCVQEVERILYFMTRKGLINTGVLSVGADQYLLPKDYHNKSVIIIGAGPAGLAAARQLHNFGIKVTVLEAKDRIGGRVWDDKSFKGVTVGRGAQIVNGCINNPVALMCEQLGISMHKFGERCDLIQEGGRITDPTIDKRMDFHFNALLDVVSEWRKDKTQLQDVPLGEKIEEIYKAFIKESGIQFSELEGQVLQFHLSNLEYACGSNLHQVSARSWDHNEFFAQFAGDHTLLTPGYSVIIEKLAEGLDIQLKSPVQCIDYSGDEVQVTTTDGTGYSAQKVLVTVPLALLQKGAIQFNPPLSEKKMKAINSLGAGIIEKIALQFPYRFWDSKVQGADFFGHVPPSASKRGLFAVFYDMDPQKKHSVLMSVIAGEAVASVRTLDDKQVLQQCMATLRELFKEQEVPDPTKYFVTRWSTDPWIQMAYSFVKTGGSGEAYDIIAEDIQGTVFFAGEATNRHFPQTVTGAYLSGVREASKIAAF
In words: Inhibition of LSD2 (unknown origin) at. Particulars: dose microM <10.

The subject of data set [24] is Kasumi 1. Nature of the data set: Anti-proliferative activity in human Kasumi 1 cells incubated for 168 hrs by MTS assay. The data set is classed as functional, cell-based. To be noted: Kasumi 1, 168 h.
Data set [25] has as its system Mus musculus. Nature of the data set: Induction of in-vivo cell differentiation in Crl:CD1-Foxn1nu mouse patient-derived xenograft model xenografted with human LU2514 assessed as reduction in nucleus to cytoplasm ratio at 10 mg/kg, po QD for 28 days and measured 15 days post last dose by H and E staining based assay. To be noted: time 43.0 day. The data set is classed as functional, organism-based.

The test system of data set [26] is NCI-H1417. Nature of the data set: Antitumor activity against human NCI-H1417 cells xenografted in Crl:CD1-Foxn1nu mouse assessed as tumor growth regression level at 2.5 mg/kg, po QD for 65 days relative to control. The data set is classed as functional. Particulars: time 65 day.

Chain of hERG (KCNH2) (Q12809 whole entry): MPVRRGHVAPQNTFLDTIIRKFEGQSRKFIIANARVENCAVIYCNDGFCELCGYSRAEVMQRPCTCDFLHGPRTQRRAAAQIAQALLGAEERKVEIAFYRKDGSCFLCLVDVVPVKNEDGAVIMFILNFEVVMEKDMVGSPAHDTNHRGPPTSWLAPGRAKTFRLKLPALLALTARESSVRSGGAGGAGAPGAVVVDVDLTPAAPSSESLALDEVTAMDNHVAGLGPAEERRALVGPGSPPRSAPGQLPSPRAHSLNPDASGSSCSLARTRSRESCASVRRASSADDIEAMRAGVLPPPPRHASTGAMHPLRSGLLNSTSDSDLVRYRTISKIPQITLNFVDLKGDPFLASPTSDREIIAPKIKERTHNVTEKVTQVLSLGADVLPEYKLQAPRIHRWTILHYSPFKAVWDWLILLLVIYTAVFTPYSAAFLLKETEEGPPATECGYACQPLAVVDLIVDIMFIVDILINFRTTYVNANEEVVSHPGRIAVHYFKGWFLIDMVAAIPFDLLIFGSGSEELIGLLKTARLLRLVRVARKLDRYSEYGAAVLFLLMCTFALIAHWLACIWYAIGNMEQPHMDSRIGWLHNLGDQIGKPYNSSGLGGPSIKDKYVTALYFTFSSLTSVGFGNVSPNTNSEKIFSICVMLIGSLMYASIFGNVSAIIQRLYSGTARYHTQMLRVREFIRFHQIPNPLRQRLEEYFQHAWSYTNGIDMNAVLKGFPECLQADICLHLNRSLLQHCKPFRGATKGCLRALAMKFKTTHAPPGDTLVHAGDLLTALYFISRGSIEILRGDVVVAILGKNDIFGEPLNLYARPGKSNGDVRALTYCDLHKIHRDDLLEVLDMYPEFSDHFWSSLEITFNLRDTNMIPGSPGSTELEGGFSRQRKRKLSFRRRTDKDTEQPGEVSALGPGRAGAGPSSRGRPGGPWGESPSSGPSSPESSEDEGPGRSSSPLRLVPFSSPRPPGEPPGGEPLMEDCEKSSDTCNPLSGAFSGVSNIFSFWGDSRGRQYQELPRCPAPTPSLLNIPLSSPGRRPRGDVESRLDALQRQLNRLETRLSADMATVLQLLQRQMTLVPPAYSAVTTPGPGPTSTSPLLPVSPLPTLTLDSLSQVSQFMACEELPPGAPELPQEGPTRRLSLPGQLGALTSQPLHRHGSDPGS

The compound `COc1ccc(-c2c(-c3ccc(C#N)cc3)nc(N3CCC(N)CC3)n(C)c2=O)cc1` gave an inhibition at 10 µM in data set [1] of 67%. Besides, in data set [2], the AUC(0-t) at 6 h stood at 6.1 µM·h.
Taken in the same sequence, the figures for `Cc1ccc(-c2cnc(N3CC[C@@H]4NCC[C@@H]4C3)nc2-c2ccc(C#N)cc2)cc1` were 95% and 14.5 µM·h.
Taken in the same sequence, the figures for `Cc1ccc(-c2c(-c3ccc(C#N)cc3)nc(N3CCC(N)CC3)n(C)c2=O)cc1` were 83% and 10.5 µM·h.
The like results for `Cc1ccc(-c2c(-c3ccc(C#N)cc3)nc(N3CCC(N)CC3)c(=O)n2C)cc1` were, in that order, 95% and 7.3 µM·h.
In data set [1], `COc1ccc(-c2c(-c3ccc(C#N)cc3)nc(N3CCC(N)CC3)n(C)c2=O)cc1F` came in with an inhibition at 10 µM of 48%. Further, the AUC(0-t) at 6 h in data set [2] was determined as 3 µM·h.
On to `Cc1ccc(-c2cnc(C[C@H]3CCNC3)nc2-c2ccc(C#N)cc2)cc1`, for which the inhibition at 10 µM in [1] is 91%. This compound also displayed an AUC(0-t) at 6 h in data set [2] of 1 µM·h.
Turning to `COc1ccc(-c2c(-c3ccc(C#N)c(F)c3)nc(N3CCC(N)CC3)n(C)c2=O)cc1F.O=S(=O)(O)c1ccccc1` [PULRODEMSTAT BESILATE], the Activity in data set [3] was under 1%; in [4], “<= 7%”; in data set [21], 178%; in [26] it was 159%. Also, in data set [1], the inhibition at 10 µM amounted to 59%. In addition, the fraction unbound in data set [5] was 0.08. Further, the EC50 in data set [6] is over 10000 nM; in data set [24], 2 nM. For the same compound, the Vd in [7] amounted to 7.5 L/kg. In addition, the “inhibition (INH)” value in [8] and in [20] was “Not Active” throughout. Besides, the outcome in data set [9], in [22] and in data set [25] was Active. Moreover, the Cmax in data set [10] was 360 nM. Moreover, the inhibition in vivo at 5 mg/kg in data set [11] is 39%; in data set [18] it was 78%. In data set [12], this compound returned an AUC(0-t) at 24 h of 1.8 µM·h. The same compound returned a bioavailability in [13] of 32%. The inhibition in vivo at 10 mg/kg in [14] worked out at 56%. The inhibition entry in data set [15] and in data set [17] was “Active” each time. Besides, the clearance in data set [16] was determined as 32.4 mL/min/kg. Moreover, the half-life in data set [19] was 2 h. Further, the inhibition entry in data set [23] is “inactive”. In data set [2], this compound gave an AUC(0-t) at 6 h of 2.6 µM·h.
